Columns and labels:
[1] = test system: present invention protein (A12); experiment: Metabolism of compounds by the present invention protein (A12), reaction solution, HPLC; type: in vitro ADME, Streptomyces tsusimaensis IFO 13782; settings: 5 ppm of compound, components A, B, C, 20 μl supernatant fraction of Example 34(2), 30° C. for 10 minutes
[2] = test system: present invention protein (A13); experiment: Metabolism of compounds by the present invention protein (A13), reaction solution, HPLC; type: in vitro ADME, Streptomyces thermocoerulesces IFO 14273t; settings: 5 ppm of compound, components A, B, C, 20 μl supernatant fraction of Example 36(2), 30° C. for 10 minutes
[3] = test system: present invention protein (A11); experiment: Metabolism of compounds by the present invention protein (A11), reaction solution, HPLC; type: in vitro ADME, Streptomyces nogalator IFO13445; settings: 5 ppm of compound, components A, B, C, 20 μl supernatant fraction of Example 32(2), 30° C. for 10 minutes
Description: There was prepared 100 μl of a reaction solution of 50 mM potassium phosphate buffer (pH7.0) containing 5 ppm of compound (XII), 3 mM of […] (hereinafter, referred to as “component A”) (Oriental Yeast Company), 1 mg/ml of a ferredoxin derived from spinach (hereinafter referred to as “component B”) (Sigma Company), 0.15 U/ml of ferredoxin reductase (hereinafter, referred to as “component C”) (Sigma Company) and 20 μl of the supernatant fraction recovered in Example 4(2). The reaction solution was maintained at 30° C. for 10 minutes. Further, there was prepared and maintained similarly 100 μl of a reaction solution of a 50 mM potassium phosphate buffer (pH 7.0) having no addition of at least one component utilized in the composition of the above reaction solution, selected from component A, component B, component C and the supernatant fraction prepared in Example 4(2). Ten microliters (10 μl) of 2N HCl and 500 μl of ethyl acetate were added and mixed into each of the reaction solutions after the maintenance. The resulting reaction solutions were centrifuged at 8,000×g to recover 490 μl of the ethyl acetate layer. After drying the ethyl acetate layers under reduced pressure, the residue was dissolved in 100 μl of 50 mM of potassium phosphate buffer (pH7.0). Forty microliters (40 μl) of the fraction solutions (hereinafter, the fraction solution derived from the reaction solution containing component A, component B, component C and 20 μl of supernatant fraction recovered in Example 4(2) is referred to as “(XII) metabolism solution (A1);” further, the fraction solution derived from the reaction solution containing no component A, no component B, no component C and no supernatant fraction recovered in Example 4(2) is referred to as “(XII) control solution (A1)”) were analyzed on a HPLC. Compared to the concentration of compound (XII) detected from (XII) control solution (A1), the concentration of compound (XII) detected from (XII) metabolism solution (A1) was lower. Further a peak, which was not detected from the (XII) control solution (A1), was detected from the (XII) metabolism solution (A1). Mass spectrometry was conducted for the compound contained in such a peak. […]
Other than utilizing 20 μl of the supernatant fraction recovered in Example 32(2) instead of 20 μl of the supernatant fraction recovered in Example 4(2), the reaction solutions were prepared and maintained in accordance with the method described in Example 41(2). […] Compared to the concentration of compound (XII) detected from (XII) control solution (A11), the concentration of compound (XII) detected from (XII) metabolism solution (A11) was lower. Further a peak, which was not detected from the (XII) control solution (A11), was detected from the (XII) metabolism solution (A11). […]

[4] = test system: present invention protein (A23); experiment: Metabolism of compounds by the present invention protein (A23), reaction solution, HPLC; type: in vitro ADME, Streptomyces roseorubens IFO 13682T; settings: 12.5 ppm of compound, components A, B, C, 20 μl supernatant fraction of Example 63(2), 30° C. for 10 minutes
[5] = test system: present invention protein (A21); experiment: Metabolism of compounds by the present invention protein (A21), reaction solution, HPLC; type: in vitro ADME, Streptomyces misawanensis IFO 13855T; settings: 12.5 ppm of compound, components A, B, C, 20 μl supernatant fraction of Example 59(2), 30° C. for 10 minutes
[6] = test system: present invention protein (A19); experiment: Metabolism of compounds by the present invention protein (A19), reaction solution, HPLC; type: in vitro ADME, Streptomyces griseus IFO 13849T; settings: 12.5 ppm of compound, components A, B, C, 20 μl supernatant fraction of Example 55(2), 30° C. for 10 minutes
[7] = test system: present invention protein (A1); experiment: Metabolism of compounds by the present invention protein (A1), reaction solution, HPLC; type: in vitro ADME, Streptomyces phaeochromogenes IFO12898; settings: 5 ppm of compound, components A, B, C, 20 μl supernatant fraction of Example 4(2), 30° C. for 10 minutes
Description: There was prepared 100 μl of a reaction solution of 50 mM potassium phosphate buffer (pH7.0) containing 5 ppm of compound (XII), 3 mM of […] (hereinafter, referred to as “component A”) (Oriental Yeast Company), 1 mg/ml of a ferredoxin derived from spinach (hereinafter referred to as “component B”) (Sigma Company), 0.15 U/ml of ferredoxin reductase (hereinafter, referred to as “component C”) (Sigma Company) and 20 μl of the supernatant fraction recovered in Example 4(2). The reaction solution was maintained at 30° C. for 10 minutes. Further, there was prepared and maintained similarly 100 μl of a reaction solution of a 50 mM potassium phosphate buffer (pH 7.0) having no addition of at least one component utilized in the composition of the above reaction solution, selected from component A, component B, component C and the supernatant fraction prepared in Example 4(2). Ten microliters (10 μl) of 2N HCl and 500 μl of ethyl acetate were added and mixed into each of the reaction solutions after the maintenance. The resulting reaction solutions were centrifuged at 8,000×g to recover 490 μl of the ethyl acetate layer. After drying the ethyl acetate layers under reduced pressure, the residue was dissolved in 100 μl of 50 mM of potassium phosphate buffer (pH7.0). Forty microliters (40 μl) of the fraction solutions (hereinafter, the fraction solution derived from the reaction solution containing component A, component B, component C and 20 μl of supernatant fraction recovered in Example 4(2) is referred to as “(XII) metabolism solution (A1);” further, the fraction solution derived from the reaction solution containing no component A, no component B, no component C and no supernatant fraction recovered in Example 4(2) is referred to as “(XII) control solution (A1)”) were analyzed on a HPLC. Compared to the concentration of compound (XII) detected from (XII) control solution (A1), the concentration of compound (XII) detected from (XII) metabolism solution (A1) was lower. Further a peak, which was not detected from the (XII) control solution (A1), was detected from the (XII) metabolism solution (A1). Mass spectrometry was conducted for the compound contained in such a peak. The mass of the compound contained in such a peak was 14 smaller than the mass of compound (XII).
Other than utilizing 5 ppm of compound (XIII) instead of 5 ppm of compound (XII), reaction solutions were prepared and maintained similarly to the method described in Example 41(2). […] Compared to the concentration of compound (XIII) detected from (XIII) control solution (A1), the concentration of compound (XIII) detected from (XIII) metabolism solution (A1) was lower. Further a peak, which was not detected from the (XIII) control solution (A1), was detected from the (XIII) metabolism solution (A1). […]

Cn1c(C(F)(F)F)cc(=O)n(-c2cc(Oc3cccnc3OCC(=O)O)c(Cl)cc2F)c1=O [compound (XII)]
lower: concentration of the compound detected from metabolism solution (A12) compared to control solution (A12) [1] | concentration of the compound detected from metabolism solution (A13) compared to control solution (A13) [2] | concentration of the compound detected from metabolism solution (A11) compared to control solution (A11) [3] | concentration of the compound detected from metabolism solution (A23) compared to control solution (A23) [4] | concentration of the compound detected from metabolism solution (A21) compared to control solution (A21) [5] | concentration of the compound detected from metabolism solution (A19) compared to control solution (A19) [6] | concentration of the compound detected from metabolism solution (A1) compared to control solution (A1) [7]

Cn1c(C(F)(F)F)cc(=O)n(-c2cc(Oc3ccccc3OCC(=O)O)c(Cl)cc2F)c1=O [compound (XIII)]
lower: concentration of the compound detected from metabolism solution (A12) compared to control solution (A12) [1] | concentration of the compound detected from metabolism solution (A13) compared to control solution (A13) [2] | concentration of the compound detected from metabolism solution (A11) compared to control solution (A11) [3] | concentration of the compound detected from metabolism solution (A23) compared to control solution (A23) [4] | concentration of the compound detected from metabolism solution (A21) compared to control solution (A21) [5] | concentration of the compound detected from metabolism solution (A19) compared to control solution (A19) [6] | concentration of the compound detected from metabolism solution (A1) compared to control solution (A1) [7]

Reference: patent US8293979B2, “Weed controller metabolism proteins, genes, thereof and use of the same” (Sumitomo Chemical Company, Limited, priority 2001, dated 2012)
